Patent US6703362B1, “Random peptides that bind to gastro-intestinal tract (GIT) transport receptors and related methods” (Cytogen Corporation, priority 1997, dated 2004)
Square brackets hold non-standard residues; d marks the D form. Peptide text beside a SMILES is read from it. * marks the point of attachment. Dansyl = CN(C)c1cccc2c(S(=O)(=O)*)cccc12

Assays:
fixed Caco-2 cells [1] = assay: Inhibition of GST-peptide fusion binding to fixed Caco-2 cells by synthetic peptides; conditions: peptide from 100 μg/ml serially diluted; GST fusion 10 μg
Excerpt: Caco-2 cells were fixed, treated with phenylhydrazine and blocked as described above. […] GST-PAX2 binding was inhibited by ZElan032, ZElan033, and ZElan035.

[2] = tested on: P100 fractions harvested from Caco-2 cells; assay: Binding of dansylated peptides to P100 fractions and peptide/particle correlation
Description: Caco-2 cell membrane (P100) and cytosolic (S100) fractions were prepared using a modification of the method described in Kinsella, B. T., O'Mahony, D. J. and G. A. FitzGerald, 1994, J. Biol. Chem. 269(47): 29914-29919. Confluent Caco-2 cell monolayers (grown in 75 cm^2 flasks for up to 1 week at 37° C. and 5% CO2) were washed twice in Dulbecco's PBS (DPBS) and the cells were harvested by centrifugation at 1000 rpm after treatment with 10 mM EDTA-DPBS. The cells were washed 3 times in DPBS and the final cell pellet was resuspended in 3 volumes of ice cold HED buffer (20 mM HEPES (pH 7.67), 1 mM EGTA, 0.5 mM dithiothreitol, 1 mM phenylmethylsulphonyl fluoride (PMSF)). The cells were allowed to swell for 5 min on ice prior to homogenization for 30 sec. The homogenates were centrifuged at 40,000 rpm for 45 min at 4° C. The supernatant (S100) was removed and the pellet (P100) was resuspended in HEDG buffer (20 mM HEPES (pH 7.67), 1 mM EGTA, 0.5 mM dithiothreitol, 100 mM NaCl, 10% glycerol, 1 mM PMSF). Protein concentrations were determined using the Bradford assay (Bradford, M. M., 1976, Anal. Biochem. 72: 248-254).
Binding of peptide and/or peptide-coated PLGA particles to membrane (P100) and cytosolic (S100) fractions was assessed by detection of the dansyl moiety incorporated in the peptide. Costar ninety six well ELISA plates were coated with S100 and P100 fractions (100 μg/ml in 0.05 M NaHCO3) overnight at 4° C. The plates were blocked with 0.5% bovine serum albumin in DPBS for 1 h at room temperature and washed 3 times in 1% BSA-DPBS. […] After washing 3 times in 1% BSA-DPBS 100 μl of TMB substrate (3,3′,5′,5-tetramethylbenzidine; Microwell Peroxidase Substrate System (Kirkegaard and Perry Laboratories 50-76-00)) was added and the optical density was measured at 650 nm at various time intervals.
Binding of dansylated peptides to P100 fractions was assessed to determine if peptide binding was predictive of peptide-coated particle binding.

[3] = Peptide stability in simulated intestinal fluid (SIF); type: in vitro ADME
Description: The relative stability for ZElanO3l, ZElanO53 and ZElan054 was determined in simulated intestinal fluid (SIF) SIF was made by dissolving 100 mg of pancreatin (Sigma cat#P-1625, lot# 122H0812)in 8.4 ml of phosphate stock solution, adjusting the pH to 7.5 with 0.2N NaOH and adjusting the volume to 10 ml with water.
Peptide (3.25 mg) was dissolved in 3.25 ml of 10,000 fold diluted SIF solution at 37° C. Aliquots (0.7 ml) of the digestion solution were then withdrawn at <1 min, 1 h, 3 h, and 21 h or 24 h. The samples were quickly passed through a syringe filter (Millipore Millex-GV 0.22 μm, part# SLGV025LS, lot# H2BM95250) and 300 μL of the filtered solution was immediately injected onto a Hewlett-Packard HPLC system equipped with a C-8 column (Applied Biosystems column and guard column: column-p/n 0711-0023 Spheri-5 ODS 5 μm, 220×4.6 mm). The products were eluted at 1.5 ml/min using an acetonitrile-water gradient. The major fluorescent peaks were collected, lyopholized and identified by MS analysis.

[4] = tested on: P100 membrane fractions derived from Caco-2 cells; assay: Dansylated peptide ELISA: relative binding of PAX2 and HAX42 peptides to P100 (ratio to ZElan021); conditions: PAX2 peptides, ratio to ZElan021 = 1.00
Outline: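 P100 membrane fraction from Caco-2 cells (normally 100 μg/ml) coated in carbonate buffer pH9.6, blocked with 2% Marvel/PBS, then incubated with dansylated peptides. Detection via anti-mouse HRP conjugate and TMB, OD read at 650nm; binding expressed relative to ZElan021.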

[5] = Isoelectric points of synthetic peptides; type: physicochemical
HPT1 = target: T1, HPT1 (Homo sapiens, UniProt Q12864); assay: Phage receptor ELISA on HPT1; type: binding; conditions: Table 5
T1 construct: 29-273; made in house
T1 sequence (Q12864 29-273): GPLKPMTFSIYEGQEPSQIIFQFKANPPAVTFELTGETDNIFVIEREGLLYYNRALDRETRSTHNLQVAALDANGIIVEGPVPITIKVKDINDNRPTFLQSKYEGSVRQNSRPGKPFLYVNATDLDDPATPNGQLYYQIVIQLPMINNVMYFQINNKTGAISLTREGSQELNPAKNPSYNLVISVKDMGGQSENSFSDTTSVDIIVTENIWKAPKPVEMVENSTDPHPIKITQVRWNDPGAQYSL
Description: (§1) 96 well plates were coated overnight with GIT receptor, BSA and, optionally, IDE (insulin degrading enzyme, an irrelevant His-fusion protein)or hTF. The plates were 5 blocked for one hour with 0.5% BSA-PBS. After clarification, the amplified phage were diluted 1:100 in […] plus 0.05% Tween 20 in PBS and added to the plates. Following incubation of the plates on a rotator for 1 to 2 hours, the plates were washed 5 times with 1% BSA plus 0.05% Tween 20 in PBS. Dilute anti-M13-HRP conjugate (anti-M13 antibody linked to horse radish peroxidase (HRP)) was added to all the wells and the plate was incubated for one hour on a rotator. After the plates were washed 5 times, as described above, TMB substrate was added to the wells. The plates were read at 650 nm absorbance.

BSA = BSA (Bos taurus, UniProt P02769); assay: Phage ELISA on BSA (background control protein); type: binding; conditions: Table 5
Chain of BSA (P02769 25-607): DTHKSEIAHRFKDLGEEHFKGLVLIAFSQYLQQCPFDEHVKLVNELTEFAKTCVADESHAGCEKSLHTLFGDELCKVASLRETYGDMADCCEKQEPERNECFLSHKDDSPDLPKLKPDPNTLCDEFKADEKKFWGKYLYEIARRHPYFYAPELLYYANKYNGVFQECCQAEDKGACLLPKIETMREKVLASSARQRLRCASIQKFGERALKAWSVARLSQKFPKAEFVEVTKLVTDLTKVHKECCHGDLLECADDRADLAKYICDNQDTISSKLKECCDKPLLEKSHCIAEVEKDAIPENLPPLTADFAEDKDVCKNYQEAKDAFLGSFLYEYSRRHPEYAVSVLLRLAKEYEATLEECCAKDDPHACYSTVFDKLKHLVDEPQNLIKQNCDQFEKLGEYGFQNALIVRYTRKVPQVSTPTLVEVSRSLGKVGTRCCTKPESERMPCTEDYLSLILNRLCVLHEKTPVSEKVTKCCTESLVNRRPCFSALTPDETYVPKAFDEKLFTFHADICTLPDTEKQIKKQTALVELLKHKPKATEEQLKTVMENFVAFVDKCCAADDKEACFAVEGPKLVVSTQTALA
Description: as §1

[6] = tested on: fixed Caco-2 or C2BBe1 cells; assay: ELISA of GST fusion proteins on fixed Caco-2 or C2BBe1 cells; type: binding
Description: Fixed Caco-2, C2BBe1, and A431 cell plates were prepared by growing cells on tissue culture treated microtiter plates. When cells were confluent, plates were fixed with 10% formaldehyde, washed twice with PBS and stored with 0.5%BSA-PBS at −20° C. […] The standard ELISA procedure was followed at this point.
The standard ELISA procedure was modified as follows. GST proteins were diluted to an appropriate concentration in PBS containing lkBSA and 0.05% Tween20 (1%BPT), titered and incubated one hour at room temperature. Following five washes an anti-GST monoclonal antibody was added (Sigma, St. Louis Clone GST-2 diluted 1:10,000 in 1%BPT) and incubated one hour. After five more washes goat anti-mouse IgG2b-HRP was added (Southern Biotechnology Associates Inc., Birmingham, Ala., diluted 1:4000 in 1%BPT) and incubated one hour. After five washes plates were developed with TMB peroxidase substrate (Kirkegard and Perry, Gaithersburg, Md.). All data is presented with background binding subtracted.

[7] = tested on: polarized Caco-2 monolayers; assay: Transport of GST-peptide fusions across polarized Caco-2 monolayers (anti-GST ELISA); type: in vitro ADME
Description: Transport and uptake of GST-peptide fusions and deletion derivatives across cultured polarized Caco-2 monolayers over 4 hours in HBSS buffer was examined using an anti-GST ELISA assay. In another experiment, transport and uptake of GST-peptide fusions and deletion derivatives across cultured polarized Caco-2 monolayers over 24 hours in serum-free medium (SFM) was examined using an anti-GST ELISA assay.
a) 4 h HBSS study: […] (TER) across the Caco-2 monolayers grown on snapwells (passage 33; 23 days old) was measured to confirm monolayer integrity before beginning the experiment. The medium was removed and the cells were washed once with bHBSS. bHBSS containing 100 μM chloroquine was added and the cells were incubated for 2 h at 37° C. The bHBSS+chloroquine was replaced with 0.5 ml bHBSS containing GST-peptide fusions (10 μg/ml) and the cells were incubated as before. […] At 4h, TER was measured, the apical medium was sampled and the apical reservoir was washed 6 times with HBSS. […]
b) 24 h SFM study: Transepithelial electrical flux (TER) across the Caco-2 monolayers grown on snapwells (passage 33; 23 days old) was measured to confirm monolayer integrity before beginning the experiment. […] After 24 hours, TER readings were taken, and samples from the basolateral and apical reservoirs were removed. […]

fixed Caco-2 cells [8] = assay: Effect of thrombin cleavage on binding of GST-peptide fusions to fixed Caco-2 cells; conditions: thrombin 18 h at room temperature
Description: Binding of intact and thrombin-cleaved GST-peptide fusions to fixed Caco-2 cells was compared.
Thirty micrograms of each GST-peptide was treated with bovine thrombin (1 μ/ml; 0.4 NIH units; Sigma CN.T9681) for 18 h at room temperature in 2OmM Tris-HCl pH8.0, 150 mM NaCl, 2.5 mM CaCl2. Controls were similarly treated without addition of thrombin. Ten micrograms of each GST-peptide fusion was removed for PAGE analysis, and 10 μg of fusions were added in duplicate to the fixed Caco-2 cells before 5-fold serial dilutions (1% BPT diluent). The fusions were allowed to bind for 1 h at room temperature. Following 6 washes with 1% BPT, binding was assayed by ELISA.

[9] = tested on: ZElan024 (P31), ZElan018 (PAX2), ZElan021 (HAX42); assay: Crossreactive binding of GST fusions to dansylated peptides; conditions: 0.5 μg/ml concentration used in competition assays

With `C[C@@H](O)[C@H](NC(=O)[C@@H](N)CCCCNS(=O)(=O)c1cccc2c(N(C)C)cccc12)C(=O)N[C@H](CCCNC(=N)N)C(=O)N[C@@H](CCCCN)C(=O)N[C@@H](CO)C(=O)N[C@@H](CO)C(=O)N[C@H](CCCNC(=N)N)C(=O)N[C@@H](CO)C(=O)N[C@@H](CC(N)=O)C(=O)N1CCC[C@H]1C(=O)N[C@H](CCCNC(=N)N)C(=O)NCC(=O)N[C@H](CCCNC(=N)N)C(=O)N[C@H](CCCNC(=N)N)C(=O)N[C@@H](Cc1c[nH]cn1)C(=O)N1CCC[C@H]1C(=O)NCC(N)=O` [ZElan053, H2N—K(dns)TrKSSrSNPrGrrHPG—CONH2] (H-K(Dansyl)T[dR]KSS[dR]SNP[dR]G[dR][dR]HPG-NH2) the “inhibition of GST-P31 binding” value (fixed Caco-2 cells [1]) was “inhibited”, the “binding of dansylated peptide to P100 compared to scrambled PAX2 control” value ([2]; initial assay) was “binding at the highest dilution only” and the “Rel. Stab.” value ([3]; rank, 1 = most stable to SIF) was 1. It also gave a remaining at 1 min, 1 mg/ml ([3]; simulated intestinal fluid (pancreatin), pH 7.5, 10,000 fold diluted SIF, 37° C., read-out: Percent Remaining at: 1 m) of 100%, a remaining at 1 h, 1 mg/ml ([3]; simulated intestinal fluid (pancreatin), pH 7.5, 10,000 fold diluted SIF, 37° C., read-out: Percent Remaining at: 1 h) of 98.3% and a remaining at 3 h, 1 mg/ml ([3]; simulated intestinal fluid (pancreatin), pH 7.5, 10,000 fold diluted SIF, 37° C., read-out: Percent Remaining at: 3 h) of 98.1%. The remaining at 24 h, 1 mg/ml ([3]; simulated intestinal fluid (pancreatin), pH 7.5, 10,000 fold diluted SIF, 37° C., read-out: Percent Remaining at: 24 h) was 94%.

For “H-K(Dansyl)STPPSREAYSRPYSVDSDSDTNAKHSSHNRRLRTRSRPNG-NH2 [ZElan018]”, the “inhibition of GST-HAX42 binding” value (fixed Caco-2 cells [1]) was “inhibited”, the “binding of dansylated peptide to P100 compared to scrambled PAX2 control” value ([2]; repeat assay) was “indistinguishable from the scrambled PAX2 control” and the “Binding value at 20 μg/ml” value ([4]; first 20 μg/ml column) was −0.33. The “Binding value at 50 μg/ml” value ([4]; first 50 μg/ml column) was 0.95, the “Binding value at 20 μg/ml” value ([4]; second 20 μg/ml column) was 1.07 and the “Binding value at 50 μg/ml” value ([4]; second 50 μg/ml column) was 1.01.

In the case of “SDHALGTNLRSDNAKEPGDYNCCGNGNSTGRKVFNRRRPSAIPT [HAX42]”, the pI [5] is reported as 9.62, the “OD, binding to HPT1” value (HPT1; phage panned on HPT-1) is reported as 0.32 and the HPT/BSA (HPT1; ratio of HPT-1 to BSA binding) is reported as 5. For the same compound, the “OD, binding to BSA” value (BSA) was 0.071.

In the case of “gst-RYKHDIGCDAGVDKKSSSVRGGCGAHSSPPRAGRGPRGTMVSRL [GST-DCX8]”, the “binding to fixed Caco-2 or C2BBe1 cells relative to GST control” value [6] is reported as “bound fixed Caco-2 or C2BBe1 cells”, the “flux relative to GST alone” value [7] is reported as “higher flux than GST alone” and the “effect of thrombin cleavage on detection of binding” value (fixed Caco-2 cells [8]) is reported as “significantly reduced detection of binding”.

In the case of “gst-SARDSGPAEDGSRAVRLNGVENANTRKSSRSNPRGRRHP [GST-P31]”, the “binding to fixed Caco-2 or C2BBe1 cells relative to GST control” value [6] is reported as “bound fixed Caco-2 or C2BBe1 cells”, the “crossreactive binding to ZElan024 (P31) and ZElan018 (PAX2)” value [9] is reported as “no crossreactive binding” and the “flux relative to GST alone” value [7] is reported as “higher flux than GST alone”.
